Assay results as given in ChEMBL document CHEMBL6092220 (J Med Chem, 2024).
The source made the active and inactive calls. No cut-off for these calls is given here.

Key:
[1] = target: T1, Protein cereblon/Signal transducer and activator of transcription 3 (Homo sapiens, UniProt P40763+Q96SW2); test: PROTAC activity at his-SUMO-tagged STAT3 (127 to 688 residues)/CRBN in human HeLa cells assessed as induction of STAT3 degradation incubated for 24 hrs by TECAN SPARK microplate reader analysis; assay type: cell-based
[2] = Apparent volume of distribution in ICR mouse at 5 mg/kg, iv; assay type: ADME, organism-based; settings: in vivo, read-out: Vz
[3] = Clearance in ICR mouse assessed as hepatic blood flow at 5 mg/kg, iv; assay type: ADME, organism-based; settings: in vivo
[4] = Apparent volume of distribution in Sprague-Dawley rat at 5 mg/kg, iv; assay type: ADME, organism-based; settings: in vivo, read-out: Vz
[5] = target: Protein cereblon/Signal transducer and activator of transcription 4 (Homo sapiens, UniProt Q96SW2+Q14765); test: PROTAC activity at STAT4/CRBN in human PBMC cells assessed as reduction in STAT4 level incubated for 20 hrs by Western blot analysis; assay type: cell-based
[6] = target: Protein cereblon/Signal transducer and activator of transcription 5A (Homo sapiens) (UniProt P42229+Q96SW2); test: PROTAC activity at STAT5A/CRBN in human PBMC cells assessed as reduction in STAT5A level upto 40 uM incubated for 20 hrs by Western blot analysis; assay type: cell-based
[7] = target: Protein cereblon/Signal transducer and activator of transcription 6 (Homo sapiens) (UniProt P42226+Q96SW2); test: PROTAC activity at STAT6/CRBN in human PBMC cells assessed as reduction in STAT6 level upto 40 uM incubated for 20 hrs by Western blot analysis; assay type: cell-based
[8] = Stability in rat plasma assessed as parent compound remaining at […]; assay type: ADME, cell-free; settings: read-out: Stability
[9] = Stability in human plasma assessed as parent compound remaining at […]; assay type: ADME, cell-free; settings: read-out: Stability
[10] = target: Cytochrome P450 2C9 (Homo sapiens, UniProt P11712); test: Inhibition of CYP2C9 (unknown origin); assay type: ADME
[11] = target: Cytochrome P450 3A4 (Homo sapiens, UniProt P08684); test: Inhibition of CYP3A4 (unknown origin) using midazolam as substrate; assay type: ADME
[12] = target: T1, Protein cereblon/Signal transducer and activator of transcription 3; test: PROTAC activity at STAT3/CRBN in human MOLM16 cells assessed as reduction in STAT3 level at 64 nM incubated for 4 hrs by Western blot analysis; assay type: cell-based
[13] = target: T1, Protein cereblon/Signal transducer and activator of transcription 3; test: (§1) PROTAC activity at STAT3/CRBN in human Pfeiffer cells transfected with STAT3 K658R mutant assessed as reduction in STAT3 level incubated for 20 hrs by Western blot analysis; assay type: cell-based; settings: dose <= 40.0 µM
[14] = target: Protein cereblon/Signal transducer and activator of transcription 3 (Homo sapiens, UniProt P40763+Q96SW2, K658R); test: as §1; assay type: cell-based
[15] = target: Protein cereblon/Signal transducer and activator of transcription 2 (Homo sapiens) (UniProt Q96SW2+P52630); test: PROTAC activity at STAT2/CRBN in human Pfeiffer cells transfected with STAT3 K658R mutant assessed as reduction in STAT2 level upto 40 uM incubated for 20 hrs by Western blot analysis; assay type: cell-based
[16] = target: T1, Protein cereblon/Signal transducer and activator of transcription 3; test: PROTAC activity at his-SUMO-tagged STAT3 (127 to 688 residues)/CRBN in human SU-DHL-1 cells assessed as reduction in STAT3 level upto 40 uM incubated for 20 hrs by Western blot analysis relative to control; assay type: cell-based; parameters: scale not given: the % may be the effect or the level left
[17] = target: Signal transducer and activator of transcription 4 (Homo sapiens, UniProt Q14765); test: Binding affinity to STAT4 (unknown origin) by FP assay
[18] = target: Protein cereblon/Signal transducer and activator of transcription 3 (Mus musculus) (UniProt P42227+Q8C7D2); test: In-vivo PROTAC activity at STAT3/CRBN in female CB17 SCID mouse assessed as STAT3 depletion liver at 5 mg/kg, iv measured at 1 hr by immunobloting analysis; assay type: functional, organism-based
[19] = Drug concentration in female CB17 SCID mouse plasma at 5 mg/kg, iv measured at 3 hrs by LC-MS/MS analysis; assay type: ADME, organism-based
[20] = Drug concentration in female CB17 SCID mouse plasma at 5 mg/kg, iv measured at 6 hrs by LC-MS/MS analysis; assay type: ADME, organism-based
[21] = Antitumor activity against human MOLM16 cells xenografted in mouse assessed as tumor regression at 5 mg/kg, iv; assay type: functional, MOLM-16

**Q.** With `COC(=O)N1CC[C@H]2CC[C@@H](C(=O)N[C@@H](CCC(N)=O)C(=O)N[C@@H](Cc3ccc(F)c(F)c3)C(=O)N3CCC(CCC#Cc4cccc5c4CN(C4CCC(=O)NC4=O)C5=O)CC3)N2C(=O)[C@@H](NC(=O)c2cc3cc(C(F)(F)P(=O)(O)O)ccc3s2)C1` (stereo partly specified) as the compound, how does the DC50 [1] read?
**A.** Its DC50 is 500 nM.

**Q.** And the Vd [2]?
**A.** The Vd was 0.1 L/kg.

**Q.** What about the QH [3] of the same compound?
**A.** Its QH is 0.1%.

**Q.** And the Vd [4]?
**A.** Its Vd is 0.12 L/kg.

**Q.** And the DC50 [5]?
**A.** Its DC50 is 1600 nM.

**Q.** What about the Activity [6] of the same compound?
**A.** The Activity was “inactive”.

**Q.** And the Activity [7]?
**A.** The Activity was “inactive”.

**Q.** And the remaining at 2 h [8]?
**A.** Its remaining at 2 h is 94%.

**Q.** And the remaining at 2 h [9]?
**A.** The remaining at 2 h was 75%.

**Q.** What about the IC50 [10] of the same compound?
**A.** Its IC50 is > 10000 nM.

**Q.** What about the IC50 [11] of the same compound?
**A.** The IC50 was > 10000 nM.

**Q.** What about the Activity [12] of the same compound?
**A.** The Activity was “Active”.

**Q.** And the Activity [13]?
**A.** The Activity was “Dose-dependent-effect”.

**Q.** What about the DC50 [14] of the same compound?
**A.** The DC50 was 2.5 nM.

**Q.** And the Activity [15]?
**A.** The Activity was “inactive”.

**Q.** What about the Activity [16] of the same compound?
**A.** Its Activity is > 95%.

**Q.** What about the IC50 [17] of the same compound?
**A.** Its IC50 is 360 nM.

**Q.** And the Activity [18]?
**A.** Its Activity is > 70%.

**Q.** And the concentration at 3 h [19]?
**A.** Its concentration at 3 h is 31200 ng/mL.

**Q.** What about the concentration at 6 h [20] of the same compound?
**A.** The concentration at 6 h was 30300 ng/mL.

**Q.** What about the Activity [21] of the same compound?
**A.** The Activity was 76%.
